Test results: PMC10584170, “Machine learning-based phenotypic imaging to characterise the targetable biology of Plasmodium falciparum male gametocytes for the development of transmission-blocking antimalarials” (PLOS Pathogens, 2023)
Where two headings read alike, the source gives them in different places.

How the values were obtained:
[1] = test system: P. falciparum male gametocytes; assay: P. falciparum Dual Gamete Formation Assay (PfDGFA), male readout (exflagellation); type: cell-based, Plasmodium falciparum NF54; conditions: for Selectivity Ratio M: HepG2 Tox50 versus male IC50; for inhibition at 2 µM / Average inhibition male (%) / % inhibition male (individual replicates) R1 / % inhibition male (individual replicates) R3 / % inhibition male (individual replicates) R4: 24h preincubation with gametocytes
Outline: (§1)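 Two sex-specific readouts come from one well: male exflagellation centres recorded by brightfield video right after activation, and female gametes scored by Cy3-anti-Pfs25 fluorescence after 24 h at 28°C.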

[2] = test system: P. falciparum female gametocytes; assay: P. falciparum Dual Gamete Formation Assay (PfDGFA), female readout (Pfs25-positive female gametes); type: cell-based, Plasmodium falciparum NF54; conditions: for Selectivity ratio F: HepG2 Tox50 versus female IC50; for inhibition at 2 µM / Average inhibition female (%) / % inhibition female (individual replicates) R1 / % inhibition female (individual replicates) R3 / % inhibition female (individual replicates) R4: 24h preincubation with gametocytes
Outline: as §1

[3] = test system: P. falciparum female gametocytes; assay: P. falciparum Female Gametocyte Activation Assay (PfFGAA); type: cell-based, Plasmodium falciparum; conditions: Mean TOX HepG2 over FGAA IC50; GREEN = >10-fold; RED = <10-fold
Text: Fig 1 The activity of TCAMS compound identified in the Pf DGFA screen. (A) 85 molecules were confirmed active in the Pf DGFA. 58 were previously identified in one or more transmission-blocking screens. […] No molecule was identified with >4.7-fold greater activity against female gametocytes. Abbreviations (IC50 = concentration giving 50% inhibition, PbODA = P. berghei Ookinete Development Assay, PfDGFA = P. falciparum Dual Gamete Formation Assay, PfFGAA = P. falciparum Female Gametocyte Activation Assay, PfGCT = P. falciparum Gametocyte Viability ATP Assay).

[4] = test system: P. falciparum female gametocytes; set-up: method as in Miguel-Blanco et al 2017; conditions: ref Miguel-Blanco et al 2017; read-out: Pf female gametogenesis FGAA IC50; cited from earlier work
HepG2 cells [5] = conditions: cited from earlier work
HepG2 cells [6] = assay: HepG2 cytotoxicity counter-screen; conditions: for Mean TOX: mean of the HepG2 TOX50 values; for Tox50: cytotoxic activity against HepG2 cells
[7] = this study, read-out: Pf DGFA IC50 MALE
[8] = this study, read-out: Pf DGFA IC50 FEM
[9] = Plasmodium falciparum, 2µM, average of replicates, read-out: Average inhibition male (%)
[10] = Plasmodium falciparum, 2µM, replicate R1, read-out: % inhibition male (individual replicates) R1
[11] = Plasmodium falciparum, 2µM, replicate R2, read-out: % inhibition male (individual replicates) R2
[12] = Plasmodium falciparum, 2µM, replicate R4, read-out: % inhibition male (individual replicates) R4
[13] = Plasmodium falciparum, PfDGFA, 24 h incubation with gametocytes before induction, exflagellation readout, read-out: Male IC50
[14] = Plasmodium falciparum, 2µM, average of replicates, read-out: Average inhibition female (%)
[15] = Plasmodium falciparum, 2µM, replicate R1, read-out: % inhibition female (individual replicates) R1
[16] = Plasmodium falciparum, 2µM, replicate R2, read-out: % inhibition female (individual replicates) R2
[17] = Plasmodium falciparum, 2µM, replicate R3, read-out: % inhibition female (individual replicates) R3
[18] = Plasmodium falciparum, 2µM, replicate R4, read-out: % inhibition female (individual replicates) R4
[19] = Plasmodium falciparum, PfDGFA, 24 h incubation with gametocytes before induction, female gamete readout, read-out: Female IC50
[20] = Plasmodium falciparum, 2µM, replicate R3, read-out: % inhibition male (individual replicates) R3
[21] = PfDGFA, 24 h incubation with gametocytes before induction, exflagellation readout, read-out: Male IC50
[22] = PfDGFA, 24 h incubation with gametocytes before induction, female gamete readout, read-out: Female IC50
[23] = PfDGFA at 2µM, average of replicates

| Compound | Cytotox ratio Pf Male [1] | IC50 [1, 7] [nM] | Cytotox ratio Pf Female [2] | Cytotox ratio Pf FGAA [3] | IC50 [4] [nM] | Mean TOX (HepG2 cells [6]) [µM] | Selectivity Ratio M [1] | inhibition at 2 µM [1, 9] [%] | inhibition at 2 µM [1, 10] [%] | inhibition at 2 µM [1, 11] [%] | inhibition at 2 µM [1, 12] [%] | IC50 [1, 13] [nM] | Selectivity ratio F [2] | inhibition at 2 µM [2, 14] [%] | inhibition at 2 µM [2, 15] [%] | inhibition at 2 µM [2, 16] [%] | inhibition at 2 µM [2, 17] [%] | inhibition at 2 µM [2, 18] [%] | IC50 [2, 19] [nM] | Tox50 (HepG2 cells [6]) [µM] | further results |
| --- | --- | --- | --- | --- | --- | --- | --- | --- | --- | --- | --- | --- | --- | --- | --- | --- | --- | --- | --- | --- | --- |
| Cc1ccc(C(C(=O)Nc2ccc(N3CCNCC3)c(Cl)c2)c2ccccc2)cc1 (stereo not shown) [TC10] | 27.6 | 420 | 1.2 | 17.6 | 660 | 11.61 | – | – | – | – | – | – | – | – | – | – | – | – | – | – | FGAA TOX50 HepG2 (HepG2 cells [5]): 11.89 µM |
| CCc1cc2c(Sc3nnc(N)s3)ncnc2s1 [TC12] | 47.6 | 980 | 63.0 | 63.9 | 730 | 46.65 | – | – | – | – | – | – | – | – | – | – | – | – | – | – | IC50 [2, 8]: 740 nM; FGAA TOX50 HepG2 (HepG2 cells [5]): 32.3 µM |
| FC(F)(F)c1ccc2[nH]c(-c3ccc(-c4ccc(CNCCN5CCNCC5)cc4)cc3)nc2c1.O=C(O)C(F)(F)F [TC40] | 10.3 | 1460 | 2.5 | 10.7 | 1410 | 15.09 | – | – | – | – | – | – | – | – | – | – | – | – | – | – | IC50 [2, 8]: 6080 nM; FGAA TOX50 HepG2 (HepG2 cells [5]): 16.43 µM |
| O=C1Nc2ccccc2C1=NNC(=S)N1CCOCC1 [TC50] | 22.9 | 2020 | 26.0 | 192.9 | 240 | 46.30 | – | – | – | – | – | – | – | – | – | – | – | – | – | – | IC50 [2, 8]: 1780 nM; DGFA Tox50 HepG2 (HepG2 cells [6]; HepG2 value reported with the DGFA screen): 46.3 µM |
| CC(C)(CN)c1nc(-c2ccc(Cl)c(O)c2)c(-c2ccncc2)[nH]1.Cl [TC61] | – | 910 | – | – | 940 | 7.15 | – | – | – | – | – | – | – | – | – | – | – | – | – | – | IC50 [2, 8]: 270 nM; FGAA TOX50 HepG2 (HepG2 cells [5]): 2.16 µM; ODA TOX50 HepG2 (HepG2 cells [5]): 1.66 µM |
| Cc1ccc(C)c(S(=O)(=O)NCC2CCN(Cc3ccc(O)cc3)CC2)c1.O=C(O)C(F)(F)F [TCMDC-141802] | – | – | – | – | – | – | 54.73 | 95.1 | 95.4 | 96.3 | 93.6 | 1490 | 8.16 | 41.1 | 46.9 | 46.3 | 38 | 33.3 | > 10000 | 81.55 | – |
| O=C(O)CCSSc1cccc[n+]1[O-] [TCMDC-141973] | – | – | – | – | – | – | 128.35 | 97.3 | 98.9 | 96.8 | 92.9 | 240 | 117.36 | 42.8 | 28.9 | 62.6 | 43.7 | 35.9 | 260 | 30.9 | inhibition at 2 µM [1, 20]: 100% |
| Nc1nc(N)c2cc(NC(=O)c3ccc(Cl)c(Cl)c3)ccc2n1 [TCMDC-141982] | – | – | – | – | – | – | 2.06 | – | – | – | – | – | 1.06 | – | – | – | – | – | – | 2.38 | Average inhibition male (%) ([1]; 2µM, average of replicates): 98.2%; % inhibition male (individual replicates) R1 ([1]; 2µM, replicate R1): 97.3%; % inhibition male (individual replicates) R3 ([1]; 2µM, replicate R3): 98.4%; % inhibition male (individual replicates) R4 ([1]; 2µM, replicate R4): 100.2%; IC50 [1, 21]: 1150 nM; Average inhibition female (%) ([2]; 2µM, average of replicates): 81.8%; % inhibition female (individual replicates) R1 ([2]; 2µM, replicate R1): 88.2%; % inhibition female (individual replicates) R3 ([2]; 2µM, replicate R3): 90.4%; % inhibition female (individual replicates) R4 ([2]; 2µM, replicate R4): 80.2%; IC50 [2, 22]: 2250 nM |
| Cl.OC(CNCCCCCCNCC(O)c1ccc(Cl)c(Cl)c1)c1ccc(Cl)c(Cl)c1 (stereo not shown) [TCMDC-141987] | – | – | – | – | – | – | 3.57 | – | – | – | – | – | 1.28 | – | – | – | – | – | – | 6.33 | Average inhibition male (%) [1, 23]: 88.7%; % inhibition male (individual replicates) R1 ([1]; PfDGFA at 2µM, replicate R1): 92.2%; % inhibition male (individual replicates) R3 ([1]; PfDGFA at 2µM, replicate R3): 63.5%; % inhibition male (individual replicates) R4 ([1]; PfDGFA at 2µM, replicate R4): 102.2%; IC50 [1, 21]: 1770 nM; HitlevelM ([1]; number of replicates with >50% inhibition in the male readout, 2µM): 4; Average inhibition female (%) [2, 23]: 52.4%; % inhibition female (individual replicates) R1 ([2]; PfDGFA at 2µM, replicate R1): 44.0%; % inhibition female (individual replicates) R3 ([2]; PfDGFA at 2µM, replicate R3): 21.3%; % inhibition female (individual replicates) R4 ([2]; PfDGFA at 2µM, replicate R4): 69.1%; IC50 [2, 22]: 4930 nM; HitlevelF ([2]; number of replicates with >50% inhibition in the female readout, 2µM): 2 |
| O=c1c(Br)ccccc1Br [TCMDC-142246] | – | – | – | – | – | – | 47.29 | 98.7 | 98.2 | 102 | 99.6 | 150 | 63.16 | 96.5 | 93.6 | 94.7 | 103 | 94.9 | 110 | 6.95 | inhibition at 2 µM [1, 20]: 94.6% |
| Nc1cc(C=Cc2ccc([N+](=O)[O-])o2)nc2ccccc12 [TCMDC-142295] | – | – | – | – | – | – | 16.74 | 98.9 | 98.2 | 98.8 | 100 | 160 | 6.49 | 93.7 | 96.4 | 95.7 | 93.8 | 88.9 | 400 | 2.6 | inhibition at 2 µM [1, 20]: 98.4% |
| Nc1cc(C=Cc2ccc([N+](=O)[O-])s2)nc2ccccc12 [TCMDC-142296] | – | – | – | – | – | – | 5.37 | 100 | 99.9 | 101 | 102 | 330 | 1.71 | 80.5 | 71.6 | 88.4 | 72.1 | 89.8 | 1030 | 1.76 | inhibition at 2 µM [1, 20]: 97.4% |
